Data on 68 molecules can be found in patent US6608082B1, “Treatment of erectile dysfunction using isoquinoline compound melanocortin receptor ligands” (Lion Bioscience AG, priority 1998, dated 2003).

T1 sequence (Q01726 whole entry): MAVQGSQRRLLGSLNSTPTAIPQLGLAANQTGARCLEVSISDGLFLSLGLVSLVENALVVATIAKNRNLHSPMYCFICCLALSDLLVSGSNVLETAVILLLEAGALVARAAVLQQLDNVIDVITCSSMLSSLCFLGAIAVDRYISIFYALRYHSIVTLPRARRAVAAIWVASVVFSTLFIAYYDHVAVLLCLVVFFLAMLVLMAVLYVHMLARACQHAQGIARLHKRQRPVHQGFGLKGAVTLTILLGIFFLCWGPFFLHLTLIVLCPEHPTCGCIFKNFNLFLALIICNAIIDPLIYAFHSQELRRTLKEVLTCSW

The first assay concerns the target T1, MCR-1 (Homo sapiens, UniProt Q01726).
T1 construct: expressed in transfected cells; host or cells: HEK 293
Put plainly: Melanocortin receptor binding assay, competition with 125I-HP 467, HEK 293 cells expressing hMCR-1. The settings on record: binding to MC receptors, Table 1. The method, boiled down:
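Test compounds compete on intact HEK 293 cells carrying hMCR-1 (2×10^4 per tube) or hMCR-4 (4×10^3 per tube), suspended in PBS, 10% calf serum, 1 mM CaCl2.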
Turning to `CCCCNC(CN)CCCCN1Cc2ccccc2C(CNC2CCCCC2)C1c1ccc(NCC)cc1` (stereo not shown) [TRG 2411-50], the “effectiveness as MC receptor ligand” value is given as “particularly effective MC receptor ligands”.
`CCNc1ccc(C2C(CN)c3ccccc3CN2CCCCC(CN)NCC)cc1` (stereo not shown) [TRG 2411-60]: the “effectiveness as MC receptor ligand” value is given as “particularly effective MC receptor ligands”.

Staying with this assay, now noted: competition with 125I-HP 467, HEK 293 cells expressing MCR-1; read-out: MC-1 IC50.
For `CCNC(CN)CCCCN1Cc2ccccc2C(CNC2CCCCC2)C1c1ccc(-c2ccccc2)cc1` (stereo not shown) [TRG 2411-14], the IC50 is 460 nM.
On the same count and under the same terms, the same measure for `NCC(CCCCN1Cc2ccccc2C(CNC2CCCCC2)C1c1ccc(-c2ccccc2)cc1)NCCO` (stereo not shown) [TRG 2411-16]: 900 nM.
Regarding `CNC(CNC(CN)CCCCN1Cc2ccccc2C(CNC2CCCCC2)C1c1ccc(-c2ccccc2)cc1)Cc1ccccc1` (stereo not shown) [TRG 2411-17], the IC50 amounted to 390 nM.
On to `COCCNC(CN)CCCCN1Cc2ccccc2C(CNC2CCCCC2)C1c1ccc(-c2ccccc2)cc1` (stereo not shown) [TRG 2411-19], for which the IC50 was found to be 490 nM.
For `NCC(N)CCCCN1Cc2ccccc2C(CN)C1c1ccc(-c2ccccc2)cc1` (stereo not shown) [TRG 2411-23], the 50% inhibitory concentration (IC50) was determined as 590 nM.
For the molecule `CCNC(CN)CCCCN1Cc2ccccc2C(CN)C1c1ccc(-c2ccccc2)cc1` (stereo not shown) [TRG 2411-24], the IC50 was determined as 530 nM.
On the same count and under the same terms, next, `NCC(CCCCN1Cc2ccccc2C(CN)C1c1ccc(-c2ccccc2)cc1)NCCc1ccccc1` (stereo not shown) [TRG 2411-25]: 350 nM; `NCCNC(CN)CCCCN1Cc2ccccc2C(CN)C1c1ccc(-c2ccccc2)cc1` (stereo not shown) [TRG 2411-27]: 660 nM.
Take `NCC1c2ccccc2CN(CCCCC(CN)N2CCCC2)C1c1ccc(-c2ccccc2)cc1` (stereo not shown) [TRG 2411-31]: the half-maximal inhibitory concentration (IC50) was determined as 970 nM.
With `COCCNC(CN)CCCCN1Cc2ccccc2C(CN)C1c1ccc(-c2ccccc2)cc1` (stereo not shown) [TRG 2411-32], the half-maximal inhibitory concentration (IC50) turned out to be 550 nM.
The same measure, in the same setting: next, `NCC(CCCCN1Cc2ccccc2C(CN)C1c1ccc(-c2ccccc2)cc1)NCC1CCCCC1` (stereo not shown) [TRG 2411-34]: 350 nM.
`CCNc1ccc(C2C(CNCCc3ccccc3)c3ccccc3CN2CCCCC(N)CN)cc1` (stereo not shown) [TRG 2411-36]: the 50% inhibitory concentration (IC50) worked out at 130 nM.
As for `CCNc1ccc(C2C(CNCCc3ccccc3)c3ccccc3CN2CCCCC(CN)NCC)cc1` (stereo not shown) [TRG 2411-37], the concentration for half-maximal inhibition (IC50) came out at 130 nM.
Consider `CCNc1ccc(C2C(CNCCc3ccccc3)c3ccccc3CN2CCCCC(CN)NCCC2CCCCC2)cc1` (stereo not shown) [TRG 2411-47], for which the concentration for half-maximal inhibition (IC50) turned out to be 220 nM.
`CCNc1ccc(C2C(CNCCc3ccccc3)c3ccccc3CN2CCCCC(CN)NCCN)cc1` (stereo not shown) [TRG 2411-48]: the IC50 was determined as 300 nM.
Still for that read-out and setting: next, `CCNc1ccc(C2C(CNC3CCCCC3)c3ccccc3CN2CCCCC(CN)NCC)cc1` (stereo not shown) [TRG 2411-49]: 220 nM; `CCCCNC(CN)CCCCN1Cc2ccccc2C(CNC2CCCCC2)C1c1ccc(NCC)cc1` (stereo not shown) [TRG 2411-50]: 80 nM.
Regarding `CCNc1ccc(C2C(CNC3CCCCC3)c3ccccc3CN2CCCCC(CN)NCc2ccc(OC)cc2)cc1` (stereo not shown) [TRG 2411-56], the IC50 was 130 nM.
As to `CCNc1ccc(C2C(CN)c3ccccc3CN2CCCCC(N)CN)cc1` (stereo not shown) [TRG 2411-59], the half-inhibitory concentration (IC50) was 370 nM.
Turning to `CCNc1ccc(C2C(CN)c3ccccc3CN2CCCCC(CN)NCC)cc1` (stereo not shown) [TRG 2411-60], the IC50 amounted to 50 nM.
In the case of `CCCCNC(CN)CCCCN1Cc2ccccc2C(CN)C1c1ccc(NCC)cc1` (stereo not shown) [TRG 2411-61], the concentration for half-maximal inhibition (IC50) was found to be 110 nM.
Turning to `CCNc1ccc(C2C(CN)c3ccccc3CN2CCCC[C@@H](CN)NCCc2ccc(Br)cc2)cc1` (stereo partly shown) [TRG 2411-64], the 50% inhibitory concentration (IC50) amounted to 480 nM.
For the molecule `CCNc1ccc(C2C(CN)c3ccccc3CN2CCCCC(CN)NCCc2ccc(OC)cc2)cc1` (stereo not shown) [TRG 2411-65], the half-maximal inhibitory concentration (IC50) worked out at 390 nM.
Same read-out and setting: next, `CCNc1ccc(C2C(CN)c3ccccc3CN2CCCCC(CN)NCc2ccccc2)cc1` (stereo not shown) [TRG 2411-66]: 110 nM.
Take `CCNc1ccc(C2C(CN)c3ccccc3CN2CCCCC(CN)NCc2ccc(Cl)cc2)cc1` (stereo not shown) [TRG 2411-67]: the concentration for half-maximal inhibition (IC50) came to 210 nM.
On to `CCNc1ccc(C2C(CN)c3ccccc3CN2CCCCC(CN)NCc2ccc(OC)cc2)cc1` (stereo not shown) [TRG 2411-68], for which the IC50 came to 120 nM.
On the same count and under the same terms, next, `CCNc1ccc(C2C(CN)c3ccccc3CN2CCCCC(CN)NCCc2ccc3ccccc3c2)cc1` (stereo not shown) [TRG 2411-69]: 370 nM; `CCNc1ccc(C2C(CN)c3ccccc3CN2CCCCC(CN)NCCC2CCCCC2)cc1` (stereo not shown) [TRG 2411-70]: 160 nM.
`CCNc1ccc(C2C(CN)c3ccccc3CN2CCCCC(CN)NCCN)cc1` (stereo not shown) [TRG 2411-71]: the 50% inhibitory concentration (IC50) is 390 nM.
In the case of `CCCCNc1ccc(C2C(CNCCc3ccccc3)c3ccccc3CN2CCCCC(N)CN)cc1` (stereo not shown) [TRG 2411-72], the half-maximal inhibitory concentration (IC50) worked out at 250 nM.
`CCCCNc1ccc(C2C(CNCCc3ccccc3)c3ccccc3CN2CCCCC(CN)NC)cc1` (stereo not shown) [TRG 2411-73]: the IC50 was 190 nM.
With `CCCCNc1ccc(C2C(CNCCc3ccccc3)c3ccccc3CN2CCCCC(CN)NCCN)cc1` (stereo not shown) [TRG 2411-85], the half-maximal inhibitory concentration (IC50) is 310 nM.
Still for that read-out and setting: the same measure for `CCCCNc1ccc(C2C(CNC3CCCCC3)c3ccccc3CN2CCCCC(CN)N2CCCC2)cc1` (stereo not shown) [TRG 2411-89]: 60 nM; for `CCCCNc1ccc(C2C(CNC3CCCCC3)c3ccccc3CN2CCCCC(CN)NCCc2ccc(Br)cc2)cc1` (stereo not shown) [TRG 2411-91]: 640 nM.
With `CCCCNc1ccc(C2C(CNC3CCCCC3)c3ccccc3CN2CCCCC(CN)NCCc2ccc(OC)cc2)cc1` (stereo not shown) [TRG 2411-92], the IC50 was determined as 300 nM.
The same measure, in the same setting: the same measure for `CCCCNc1ccc(C2C(CNC3CCCCC3)c3ccccc3CN2CCCCC(CN)NCc2ccccc2)cc1` (stereo not shown) [TRG 2411-93]: 130 nM; for `CCCCNc1ccc(C2C(CN)c3ccccc3CN2CCCCC(CN)NC)cc1` (stereo not shown) [TRG 2411-100]: 130 nM.
Take `CCCCNc1ccc(C2C(CN)c3ccccc3CN2CCCCC(CN)NCC)cc1` (stereo not shown) [TRG 2411-101]: the IC50 was found to be 100 nM.
Turning to `CCCCNc1ccc(C2C(CN)c3ccccc3CN2CCCCC(CN)N2CCCC2)cc1` (stereo not shown) [TRG 2411-103], the IC50 turned out to be 20 nM.
As to `CCCCNc1ccc(C2C(CN)c3ccccc3CN2CCCCC(CN)NCCc2ccc(OC)cc2)cc1` (stereo not shown) [TRG 2411-106], the IC50 amounted to 370 nM.
`CCCCNc1ccc(C2C(CN)c3ccccc3CN2CCCCC(CN)NCc2ccccc2)cc1` (stereo not shown) [TRG 2411-107]: the IC50 was found to be 340 nM.
Still for that read-out and setting: the same measure for `NC[C@@H](N)CCCN1Cc2ccccc2C(CNCCc2ccccc2)C1c1ccc(-c2ccccc2)cc1` (stereo partly shown) [TRG 2411-113]: 500 nM; for `CNC(CN)CCCN1Cc2ccccc2C(CNCCc2ccccc2)C1c1ccc(-c2ccccc2)cc1` (stereo not shown) [TRG 2411-114]: 760 nM.
In the case of `CNCCNC(CN)CCCN1Cc2ccccc2C(CNCCc2ccccc2)C1c1ccc(-c2ccccc2)cc1` (stereo not shown) [TRG 2411-117], the half-maximal inhibitory concentration (IC50) was 970 nM.
For the molecule `NCCNC(CN)CCCN1Cc2ccccc2C(CNCCc2ccccc2)C1c1ccc(-c2ccccc2)cc1` (stereo not shown) [TRG 2411-118], the IC50 was 350 nM.
`CNC(C)CNC(CN)CCCN1Cc2ccccc2C(CNCCc2ccccc2)C1c1ccc(-c2ccccc2)cc1` (stereo not shown) [TRG 2411-119]: the IC50 was 370 nM.
As for `NCC(CCCN1Cc2ccccc2C(CNCCc2ccccc2)C1c1ccc(-c2ccccc2)cc1)NCCO` (stereo not shown) [TRG 2411-120], the IC50 was found to be 1700 nM.
In the case of `CNC(CNC(CN)CCCN1Cc2ccccc2C(CNCCc2ccccc2)C1c1ccc(-c2ccccc2)cc1)Cc1ccccc1` (stereo not shown) [TRG 2411-121], the IC50 was 1070 nM.
Consider `COCCNC(CN)CCCN1Cc2ccccc2C(CNCCc2ccccc2)C1c1ccc(-c2ccccc2)cc1` (stereo not shown) [TRG 2411-123], for which the 50% inhibitory concentration (IC50) amounted to 1540 nM.
Take `CCCCNC(CN)CCCN1Cc2ccccc2C(CNCCc2ccccc2)C1c1ccc(-c2ccccc2)cc1` (stereo not shown) [TRG 2411-124]: the concentration for half-maximal inhibition (IC50) came to 1540 nM.
Turning to `NCC(CCCN1Cc2ccccc2C(CNCCc2ccccc2)C1c1ccc(-c2ccccc2)cc1)NCC1CCCCC1` (stereo not shown) [TRG 2411-125], the half-maximal inhibitory concentration (IC50) was 820 nM.
For the molecule `CCNC(CN)CCCN1Cc2ccccc2C(CNC2CCCCC2)C1c1ccc(-c2ccccc2)cc1` (stereo not shown) [TRG 2411-127], the concentration for half-maximal inhibition (IC50) was found to be 1480 nM.
On the same count and under the same terms, the same measure for `CNC(C)CNC(CN)CCCN1Cc2ccccc2C(CNC2CCCCC2)C1c1ccc(-c2ccccc2)cc1` (stereo not shown) [TRG 2411-128]: 1570 nM; for `CNC(CNC(CN)CCCN1Cc2ccccc2C(CNC2CCCCC2)C1c1ccc(-c2ccccc2)cc1)Cc1ccccc1` (stereo not shown) [TRG 2411-130]: 920 nM.
As to `NCC(CCCN1Cc2ccccc2C(CNC2CCCCC2)C1c1ccc(-c2ccccc2)cc1)N1CCCC1` (stereo not shown) [TRG 2411-131], the 50% inhibitory concentration (IC50) worked out at 230 nM.
As for `NCC(CCCN1Cc2ccccc2C(CNC2CCCCC2)C1c1ccc(-c2ccccc2)cc1)NCC1CCCCC1` (stereo not shown) [TRG 2411-134], the concentration for half-maximal inhibition (IC50) is 1480 nM.
For `NCC(CCCN1Cc2ccccc2C(CNC2CCCCC2)C1c1ccc(-c2ccccc2)cc1)NCc1ccccc1` (stereo not shown) [TRG 2411-135], the IC50 came out at 1980 nM.
The same measure, in the same setting: next, `CNC(CN)CCCN1Cc2ccccc2C(CN)C1c1ccc(-c2ccccc2)cc1` (stereo not shown) [TRG 2411-137]: 1620 nM; `CCNC(CN)CCCN1Cc2ccccc2C(CN)C1c1ccc(-c2ccccc2)cc1` (stereo not shown) [TRG 2411-138]: 1270 nM; `NCC(CCCN1Cc2ccccc2C(CN)C1c1ccc(-c2ccccc2)cc1)NCCc1ccccc1` (stereo not shown) [TRG 2411-139]: 1460 nM.
On to `CNCCNC(CN)CCCN1Cc2ccccc2C(CN)C1c1ccc(-c2ccccc2)cc1` (stereo not shown) [TRG 2411-140], for which the IC50 amounted to 1360 nM.
As for `NCCNC(CN)CCCN1Cc2ccccc2C(CN)C1c1ccc(-c2ccccc2)cc1` (stereo not shown) [TRG 2411-141], the IC50 came to 1150 nM.
With `CNC(CNC(CN)CCCN1Cc2ccccc2C(CN)C1c1ccc(-c2ccccc2)cc1)Cc1ccccc1` (stereo not shown) [TRG 2411-144], the half-maximal inhibitory concentration (IC50) was determined as 1220 nM.

The same assay, now with this note: inhibition of binding of 125I-HP 467, HEK 293 cells expressing MCR-1; read-out: MC-1 IC50.
Consider `CCNc1ccc(C2C(CNCCc3ccccc3)c3ccccc3CN2CCCC(CN)NCCN)cc1` (stereo not shown) [TRG 2411-163], for which the IC50 is 220 nM.
For `CCCCNC(CN)CCCN1Cc2ccccc2C(CNC2CCCCC2)C1c1ccc(NCC)cc1` (stereo not shown) [TRG 2411-165], the IC50 came out at 90 nM.
`CCNc1ccc(C2C(CNC3CCCCC3)c3ccccc3CN2CCCC(CN)N2CCCC2)cc1` (stereo not shown) [TRG 2411-166]: the half-maximal inhibitory concentration (IC50) is 40 nM.
Consider `CCNc1ccc(C2C(CNC3CCCCC3)c3ccccc3CN2CCCC(CN)NCCc2ccc(OC)cc2)cc1` (stereo not shown) [TRG 2411-168], for which the IC50 turned out to be 230 nM.
Take `CCNc1ccc(C2C(CNC3CCCCC3)c3ccccc3CN2CCCC(CN)NCc2ccc(Cl)cc2)cc1` (stereo not shown) [TRG 2411-170]: the IC50 came out at 130 nM.
